According to PMC11204923, “Marine Cytotoxin Santacruzamate A Derivatives as Potent HDAC1-3 Inhibitors and Their Synergistic Anti-Leukemia Effects with Venetoclax” (Marine Drugs, 2024):

Legend:
Type in all cases: biochemical
HDAC1 = target: T1, HDAC1 (Homo sapiens, UniProt Q13547); assay: In vitro HDAC inhibition fluorescence assay, HDAC1; conditions: for inhibition at 0.01 µM: 10 nM; for inhibition at 0.01 µM / inhibition at 0.1 µM: read-out: Inhibition Rate of HDAC1 (%); for inhibition at 0.1 µM: 100 nM
T1 construct: purchased BPS Bioscience
Protocol: (§1) All of the HDAC enzymes were purchased from BPS Bioscience. In vitro HDAC inhibition assays were conducted as previously described. In brief, 20 μL of recombinant HDAC enzyme solution (HDAC1-9, 11) was mixed with various concentrations of the tested compound (20 μL). […] After incubation at 37 °C for 2 h, the catalysis was stopped by the addition of 10 μL of developer containing 30 mg/mL trypsin and 6 μM trichostatin A (TSA). Then, 30 min later, the fluorescence intensity was measured using a microplate reader at excitation and emission wavelengths of 360 and 460 nm, respectively. The inhibition ratios were calculated from the fluorescence intensity readings of tested wells relative to those of control wells, and the IC50 curves and values were determined by GraphPad Prism 6.0, using the “log(inhibitor) vs. normalized response-variable slope” function.

HDAC3 = target: T2, HDAC3 (Homo sapiens, UniProt O15379); assay: In vitro HDAC inhibition fluorescence assay, HDAC3; conditions: for inhibition at 0.01 µM: 10 nM; for inhibition at 0.01 µM / inhibition at 0.1 µM: read-out: Inhibition Rate of HDAC3 (%); for inhibition at 0.1 µM: 100 nM
T2 construct: purchased BPS Bioscience
Protocol: as §1

HDAC2 = target: T3, HDAC2 (Homo sapiens, UniProt Q92769); assay: In vitro HDAC inhibition fluorescence assay, HDAC2
T3 construct: purchased BPS Bioscience
Protocol: as §1

T3 sequence (Q92769 whole entry): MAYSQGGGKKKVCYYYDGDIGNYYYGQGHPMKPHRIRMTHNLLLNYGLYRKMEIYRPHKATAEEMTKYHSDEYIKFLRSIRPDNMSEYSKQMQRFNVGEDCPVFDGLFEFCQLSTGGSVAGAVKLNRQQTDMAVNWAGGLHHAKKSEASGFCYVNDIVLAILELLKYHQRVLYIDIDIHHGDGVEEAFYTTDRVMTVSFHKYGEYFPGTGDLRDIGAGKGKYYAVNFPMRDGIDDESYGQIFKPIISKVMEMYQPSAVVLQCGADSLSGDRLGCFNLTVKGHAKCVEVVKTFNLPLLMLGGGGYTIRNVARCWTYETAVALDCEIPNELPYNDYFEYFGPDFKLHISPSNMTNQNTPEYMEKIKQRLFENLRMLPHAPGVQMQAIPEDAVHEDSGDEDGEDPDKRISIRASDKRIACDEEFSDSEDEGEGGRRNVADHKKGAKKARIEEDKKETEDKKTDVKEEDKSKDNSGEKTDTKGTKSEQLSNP
T1 sequence (Q13547 whole entry): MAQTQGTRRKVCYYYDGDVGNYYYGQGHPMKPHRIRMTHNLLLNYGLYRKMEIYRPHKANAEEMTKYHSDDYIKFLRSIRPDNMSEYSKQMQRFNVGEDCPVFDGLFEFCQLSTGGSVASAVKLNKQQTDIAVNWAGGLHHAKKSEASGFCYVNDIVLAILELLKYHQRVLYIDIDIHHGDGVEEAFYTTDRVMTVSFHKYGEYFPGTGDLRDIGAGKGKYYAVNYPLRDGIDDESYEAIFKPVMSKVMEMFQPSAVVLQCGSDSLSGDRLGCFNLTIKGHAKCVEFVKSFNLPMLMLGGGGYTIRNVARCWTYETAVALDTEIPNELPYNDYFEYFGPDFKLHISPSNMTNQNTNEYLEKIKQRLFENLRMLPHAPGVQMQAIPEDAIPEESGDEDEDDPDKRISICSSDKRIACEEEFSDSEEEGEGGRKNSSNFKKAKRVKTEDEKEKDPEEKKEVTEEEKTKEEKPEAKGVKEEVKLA
T2 sequence (O15379 whole entry): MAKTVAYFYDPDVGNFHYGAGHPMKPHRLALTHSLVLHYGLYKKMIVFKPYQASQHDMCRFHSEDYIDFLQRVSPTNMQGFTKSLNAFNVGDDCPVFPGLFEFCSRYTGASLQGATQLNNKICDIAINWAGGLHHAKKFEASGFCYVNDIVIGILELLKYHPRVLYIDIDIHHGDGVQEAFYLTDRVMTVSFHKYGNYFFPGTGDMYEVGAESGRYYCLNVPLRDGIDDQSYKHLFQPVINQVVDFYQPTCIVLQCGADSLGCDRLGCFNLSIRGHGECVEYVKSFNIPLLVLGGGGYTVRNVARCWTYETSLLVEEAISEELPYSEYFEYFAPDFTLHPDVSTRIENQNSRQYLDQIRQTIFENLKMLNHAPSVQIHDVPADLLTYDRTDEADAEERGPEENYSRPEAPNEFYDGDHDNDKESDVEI
T2 sequence (Q9Y618 395-489 partner limits assumed): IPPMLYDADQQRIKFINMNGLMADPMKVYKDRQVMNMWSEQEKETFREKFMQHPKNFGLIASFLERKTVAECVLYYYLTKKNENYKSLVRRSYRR

Compound | inhibition at 0.01 µM (HDAC1) | inhibition at 0.1 µM (HDAC1) | inhibition at 0.01 µM (HDAC3) | inhibition at 0.1 µM (HDAC3) | IC50 (HDAC1) | IC50 (HDAC2) | IC50 (HDAC3)
CCCNNC(=O)CCC(=O)NCCc1ccccc1 [Compound 9a, 4-Oxo-N-phenethyl-4-(2-propylhydrazineyl)butanamide] | 2.2 ± 2.3% | 0.3 ± 1.7% | -0.6 ± 1.9% | 11.1 ± 0.5% |  |  | 
CCCNNC(=O)CCCC(=O)NCCc1ccccc1 [Compound 9b, 5-Oxo-N-phenethyl-5-(2-propylhydrazineyl)pentanamide] | -9.2 ± 1.4% | 3.1 ± 1.1% | 11.5 ± 0.7% | 53.7% |  |  | 
CCCNNC(=O)CCCCC(=O)NCCc1ccccc1 [Compound 9c, 6-Oxo-N-phenethyl-6-(2-propylhydrazineyl)hexanamide] | -6 ± 1.2% | 27.5 ± 0.6% | 18.2 ± 2.9% | 61.9 ± 0.7% |  |  | 
CCCNNC(=O)CCCCCC(=O)NCCc1ccccc1 [Compound 9d, 7-Oxo-N-phenethyl-7-(2-propylhydrazineyl)heptanamide] | 5.58 ± 2.39% | 52 ± 2.86% | 21.2 ± 1.5% | 76.82 ± 0.47% |  |  | 
CCCNNC(=O)CCCCCCC(=O)NCCc1ccccc1 [Compound 9e, 8-Oxo-N-phenethyl-8-(2-propylhydrazineyl)octanamide] | 12 ± 0.9% | 65.6 ± 0.1% | 38.8 ± 3% | 85.5 ± 0.6% |  |  | 
CCCNNC(=O)CCCCCCCC(=O)NCCc1ccccc1 [Compound 9f, 9-Oxo-N-phenethyl-9-(2-propylhydrazineyl)nonanamide] | 15.9 ± 1.6% | 57.1 ± 0.7% | 19.6 ± 8% | 79.9 ± 0.8% |  |  | 
CCCNNC(=O)c1ccc(C(=O)NCCc2ccccc2)cc1 [Compound 9g, N-Phenethyl-4-(2-propylhydrazine-1-carbonyl)benzamide] | 23.5 ± 2% | 30.1 ± 2.1% | 11.2 ± 8% | 50.6 ± 5.4% |  |  | 
CCCNNC(=O)c1ccc(CC(=O)NCCc2ccccc2)cc1 [Compound 9h, N-Phenethyl-2-(4-(2-propylhydrazine-1-carbonyl)phenyl)acetamide] | 5.61 ± 1.6% | 10.1 ± 0.7% | -4.61 ± 13.6% | -5.9 ± 0.6% |  |  | 
CCCNNC(=O)Cc1ccc(C(=O)NCCc2ccccc2)cc1 [Compound 9i, 4-(2-Oxo-2-(2-propylhydrazineyl)ethyl)-N-phenethylbenzamide] | 12.5 ± 0.2% | 16.4 ± 1.2% | -0.8 ± 4.2% | -3.1 ± 3.4% |  |  | 
CCCNNC(=O)C=Cc1ccc(C(=O)NCCc2ccccc2)cc1 [Compound 9j, 4-(3-Oxo-3-(2-propylhydrazineyl)prop-1-en-1-yl)-N-phenethylbenzamide] | 32.8 ± 0.1% | 76.7 ± 0.3% |  |  | 0.0358 ± 0.0036 µM | 0.0694 ± 0.0034 µM | 
CCCNNC(=O)CCc1ccc(C(=O)NCCc2ccccc2)cc1 [Compound 9k, 4-(3-Oxo-3-(2-propylhydrazineyl)propyl)-N-phenethylbenzamide] | 23.1 ± 2.1% | 67.9 ± 1.4% |  |  | 0.122 ± 0.0186 µM | 0.374 ± 0.0217 µM | 
CCCNNC(=O)c1ccc(C=CC(=O)NCCc2ccccc2)cc1 [Compound 9l, N-Phenethyl-3-(4-(2-propylhydrazine-1-carbonyl)phenyl)acrylamide] | 36.5 ± 2.1% | 74.5 ± 0.3% | 78.1 ± 0.1% | 87.2 ± 2.6% | 0.0374 ± 0.0058 µM | 0.116 ± 0.0114 µM | 0.006 ± 0.0017 µM
CCCNNC(=O)c1ccc(CCC(=O)NCCc2ccccc2)cc1 [Compound 9m, N-Phenethyl-3-(4-(2-propylhydrazine-1-carbonyl)phenyl)propanamide] | 21.2 ± 0.9% | 67.3 ± 2.8% | 27.2 ± 2.7% | 80.7 ± 0.7% |  |  | 
CCCNNC(=O)CCCNC(=O)Cc1ccccc1 [Compound 14a, N-(4-Oxo-4-(2-propylhydrazineyl)butyl)-2-phenylacetamide] | -7 ± 2.6% | 2.3 ± 2.4% | 2.4 ± 2.9% | 18.2 ± 3.3% |  |  | 
CCCNNC(=O)CCCCNC(=O)Cc1ccccc1 [Compound 14b, N-(5-Oxo-5-(2-propylhydrazineyl)pentyl)-2-phenylacetamide] | -9.04 ± 0.1% | 7.7 ± 2.1% | 16.6 ± 3.2% | 45.2 ± 1.1% |  |  | 
CCCNNC(=O)CCCCCNC(=O)Cc1ccccc1 [Compound 14c, N-(6-Oxo-6-(2-propylhydrazineyl)hexyl)-2-phenylacetamide] | -6.8 ± 2.1% | 14.4 ± 2.4% | 16.1 ± 3.3% | 54.4 ± 0.7% |  |  | 
CCCNNC(=O)CCCCCCNC(=O)Cc1ccccc1 [Compound 14d, N-(7-Oxo-7-(2-propylhydrazineyl)heptyl)-2-phenylacetamide] | 1.9 ± 3.7% | 43.2 ± 0.1% | 21.2 ± 1.5% | 76.8 ± 0.4% |  |  | 
CCCNNC(=O)CCCCCCCNC(=O)Cc1ccccc1 [Compound 14e, N-(8-Oxo-8-(2-propylhydrazineyl)octyl)-2-phenylacetamide] | 8.8 ± 3.7% | 51.6 ± 0.9% | 23.1 ± 0.1% | 71.5 ± 0.7% |  |  | 
CCCNNC(=O)CCCCCCCCNC(=O)Cc1ccccc1 [Compound 14f, N-(9-Oxo-9-(2-propylhydrazineyl)nonyl)-2-phenylacetamide] | 9.8 ± 0.4% | 32.7 ± 1.2% | 3.2 ± 10.6% | 48.8 ± 1.1% |  |  | 
CCCNNC(=O)C=Cc1ccc(C(=O)NC2Cc3ccccc3C2)cc1 [Compound 19a, N-(2,3-Dihydro-1H-inden-2-yl)-4-(3-oxo-3-(2-propylhydrazineyl)prop-1-en-1-yl)benzamide] | 8.1 ± 0.3% | 39.9 ± 0.6% | 37.4 ± 0.1% | 78.2 ± 0.5% |  |  | 
CCCNNC(=O)C=Cc1ccc(C(=O)N2CCc3ccccc3C2)cc1 [Compound 19b, N′-Propyl-3-(4-(1,2,3,4-tetrahydroisoquinoline-2-carbonyl)phenyl)acrylohydrazide] | -4.6 ± 2.1% | -0.4 ± 1.7% | -1.1 ± 2.3% | 18.3 ± 0.5% |  |  | 
CCCNNC(=O)C=Cc1ccc(C(=O)N2CCc3cc(Br)ccc3C2)cc1 [Compound 19c, 3-(4-(6-Bromo-1,2,3,4-tetrahydroisoquinoline-2-carbonyl)phenyl)-N′-propylacrylohydrazide] | 1.5 ± 1.5% | 27.2 ± 2.8% | 4.1 ± 9.9% | 38.1 ± 0.8% |  |  | 
CCCNNC(=O)C=Cc1ccc(C(=O)N2CCc3ccc(Br)cc3C2)cc1 [Compound 19d, 3-(4-(7-Bromo-1,2,3,4-tetrahydroisoquinoline-2-carbonyl)phenyl)-N′-propylacrylohydrazide] | -1.4 ± 0.5% | 38.2 ± 2.3% | -0.4 ± 3.4% | 34.8 ± 1.2% |  |  | 
CCCNNC(=O)C=Cc1ccc(CNc2ccccc2)cc1 [Compound 25a, 3-(4-((Phenylamino)methyl)phenyl)-N′-propylacrylohydrazide] | 14.2 ± 1.5% | 60.7 ± 0.7% | 49.2 ± 0.9% | 80.4 ± 0.7% | 0.0965 ± 0.0011 µM | 0.224 ± 0.0194 µM | 0.0082 ± 0.0009 µM
CCCNNC(=O)C=Cc1ccc(CNCc2ccccn2)cc1 [Compound 25d, N′-Propyl-3-(4-(((pyridin-2-ylmethyl)amino)methyl)phenyl)acrylohydrazide] | 9.3 ± 2.3% | 61.7 ± 1.1% | 62.5 ± 0.4% | 86.9 ± 0.1% | 0.101 ± 0.027 µM | 0.314 ± 0.0367 µM | 0.013 ± 0.0064 µM
CCCNNC(=O)C=Cc1ccc(CNc2cccc3ccccc23)cc1 [Compound 25f, 3-(4-((Naphthalen-1-ylamino)methyl)phenyl)-N′-propylacrylohydrazide] | 31.3% | 71.2 ± 0.9% | 25.7 ± 1.3% | 60.7 ± 0.5% |  |  | 
CCCNNC(=O)C=Cc1ccc(CN2C(=O)c3ccccc3C2=O)cc1 [Compound 30, 3-(4-((1,3-Dioxoisoindolin-2-yl)methyl)phenyl)-N′-propylacrylohydrazide] | 5.1 ± 1.3% | 28.4 ± 1.1% | 53.9 ± 0.4% | 85.1 ± 0.1% | 0.136 ± 0.0206 µM | 0.6519 ± 0.0034 µM | 0.0278 ± 0.0018 µM
